Results on one molecule are retold here after US8314217B2, “Cross-linked glycopeptide-cephalosporin antibiotics” (priority 2003, dated 2012).

Converted amounts (≈) assume the structure as drawn.

Assay [1] has as its system methicillin-susceptible Staphylococcus aureus (MSSA 13709) and methicillin-resistant Staphylococcus aureus (MRSA 33591). The assay is described as follows: In vivo efficacy in neutropenic mice (thigh infection). The arrangement: species or system Male CD-1 mice. The conditions noted are these: iv, 24 h, read-out: ED50 (dose required to produce 50% of the maximum reduction in thigh titre). As for the experimental part: Animals (Male CD-1 mice, 20-30 g) were acquired from Charles Rivers Laboratories (Gilroy, Calif.) and allowed access to food and water ad libitum. Neutropenia was induced via 200 mg/kg intraperitoneal (IP) injection of cyclophosphamide given four and two days prior to the inoculation of bacteria.
The organism used was either a susceptible or resistant strain of clinically relevant Gram-positive pathogens, such as methicillin-susceptible Staphylococcus aureus (MSSA 13709) and methicillin-resistant Staphylococcus aureus (MRSA 33591). The bacterial inoculum concentration was ˜10^6 CFU/mL. Animals were lightly anesthetized with isoflurane and […] of the bacterial inoculum was injected into the anterior thigh. One hour after the inoculation, animals were dosed intravenously with vehicle or the appropriate dose of the test compound. At 0 hours and 24 hours post-treatment, the animals were euthanized (CO2 asphyxiation) and the anterior and posterior thigh collected aseptically. The thigh was placed into 10 mL sterile saline and homogenized. Dilutions of the homogenate were plated onto triptic soy agar plates which were incubated overnight. The number of bacterial colonies on a given plate was multiplied by the dilution factor, divided by the thigh weight (in grams) and expressed as log CFU/g. […]

In the next assay the test system is MSSA 13709. The experiment in a line: Minimal inhibitory concentration (MIC), broth microdilution. In kind it is cell-based, methicillin-susceptible Staphylococcus aureus. The conditions noted are these: Staphylococcus aureus, read-out: MIC MSSA 13709. As for the experimental part:
(§1) Minimal inhibitory concentration (MICs) assays were performed using the broth microdilution method set forth in NCCLS guidelines (see, NCCLS. 2000. Methods for Dilution Antimicrobial Susceptibility Tests for Bacteria That Grow Aerobically; Approved Standard—Fifth Ed., Vol. 20, No. 2). Bacterial strains were obtained from the American Type Tissue Culture Collection (ATCC), Stanford University Hospital (SU), Kaiser Permanente Regional Laboratory in Berkeley (KPB), Massachusetts General Hospital (MGH), the Centers for Disease Control (CDC), the San Francisco Veterans' Administration Hospital (SFVA) or the University of California San Francisco Hospital (UCSF). Vancomycin-resistant enterococci were phenotyped as Van A or Van B based on their sensitivity to teicoplanin. Some vancomycin-resistant enterococci that had been genotyped as Van A, Van B, Van C1 or Van C2 were also obtained from the Mayo Clinic.
(§2) In this assay, cryopreserved bacterial cultures of reference and clinical strains were streaked for isolation on appropriate agar medium (i.e., Trypticase Soy Agar, Trypticase Soy Agar with defibrinated sheep erythrocytes, Brain Heart Infusion Agar, Chocolate Agar). Following incubation to allow formation of colonies, these plates were sealed with Parafilm® and stored refrigerated for up to two weeks. […] The MIC was read visually as the lowest concentration well with no bacterial growth. […]

Assay [2] relates to MRSA 33591. The assay is described as follows: Time-kill assay. The format is cell-based, methicillin-resistant Staphylococcus aureus. The conditions noted are these: MRSA 33591, in 24 hours. As for the experimental part: This time-kill assay is a method for measuring the rate of bactericidal activity of a test compound. […] A rapid time-kill is desirable to quickly prevent bacterial colonization and reduce host tissue damage.
Bacteria were diluted in prewarmed media in shake flasks and incubated with shaking (200 rpm, 35° C.). At 0, 1, 4, and 24 hours samples were withdrawn from the flasks and bacteria were enumerated by plate counting. Subsequent to the initial sampling, a compound to be assayed was added to the shake flask culture. Plate counts at these intervals previous to and following addition of the compound were expressed graphically in a time-kill curve.

The test system of assay [3] is MRSA 33591. The experiment in a line: Minimal inhibitory concentration (MIC), broth microdilution. In kind it is cell-based, methicillin-resistant Staphylococcus aureus. The conditions noted are these: Staphylococcus aureus, read-out: MIC MRSA 33591. As for the experimental part:
as §1, §2

For `CN[C@H](CC(C)C)C(=O)N[C@H]1C(=O)N[C@@H](CC(N)=O)C(=O)N[C@H]2C(=O)N[C@H]3C(=O)N[C@H](C(=O)N[C@H](C(=O)O)c4cc(O)cc(O)c4-c4cc3ccc4O)[C@H](O)c3ccc(c(Cl)c3)Oc3cc2cc(c3O[C@@H]2O[C@H](CO)[C@@H](O)[C@H](O)[C@H]2O[C@H]2C[C@](C)(N)[C@H](O)[C@H](C)O2)Oc2ccc(cc2Cl)[C@H]1O` [Vancomycin], the ED50 in assay [1] worked out at 9 mg/kg. In addition, the MIC with MSSA 13709 worked out at 1 µg/mL (≈ 0.69 µM); in the assay with MRSA 33591 [3] it was 2 µg/mL (≈ 1.38 µM). For the same molecule, the “bactericidal concentration (≧3 log decrease in bacterial cell numbers)” value in the assay on MRSA 33591 [2] is 4 μg/mL.
